According to ChEMBL document CHEMBL3872242, “Anti-inflammatory tetraquinane diterpenoids from a Crinipellis species” (Bioorg Med Chem, 2017):
Values belong to the compound of their own block, whether it stands above or below them. The source made the active and inactive calls. The rule behind the calls is not given here.

Tests used:
[1] = Down regulation of TNF-alpha mRNA expression in LPS/INF-gamma stimulated human MONO-MAC-6 cells at 30 uM preincubated for 1 hr followed by LPS/INF-gamma stimulation measured after 4 hrs by quantitative RT-PCR analysis; assay type: functional, cell-based
[2] = Effect on GAPDH mRNA expression in human MONO-MAC-6 cells at 30 to 60 uM preincubated for 1 hr followed by LPS/INF-gamma stimulation measured after 4 hrs by quantitative RT-PCR analysis; assay type: ADME, cell-based; settings: mono-mac-6, 4 h
[3] = Inhibition of NF-kappaB (unknown origin) expressed in LPS/INF-gamma-stimulated human MONO-MAC-6 cells measured after 4 hrs by luciferase reporter gene assay; assay type: cell-based; settings: MONO-MAC-6, 4 h
[4] = Cytotoxicity against human MONO-MAC-6 cells up to 50 uM measured after 24 hrs by XTT assay; assay type: toxicity, cell-based; settings: mono-mac-6, 24 h
[5] = Down regulation of […] mRNA expression in LPS/INF-gamma stimulated human MONO-MAC-6 cells at 30 uM preincubated for 1 hr followed by LPS/INF-gamma stimulation measured after 4 hrs by quantitative RT-PCR analysis; assay type: functional, cell-based
MONO-MAC-6 [6] = assay: Inhibition of CCL3 mRNA expression in LPS/INF-gamma stimulated human MONO-MAC-6 cells at 30 uM preincubated for 1 hr followed by LPS/INF-gamma stimulation measured after 16 hrs; assay type: functional, cell-based
MONO-MAC-6 [7] = assay: Inhibition of human THP1 cells derived IL-8 promoter dependent transcription activity expressed in LPS/INF-gamma stimulated human MONO-MAC-6 cells measured after 4 hrs by luciferase reporter gene assay; assay type: functional, cell-based; settings: MONO-MAC-6, 4 h
MONO-MAC-6 [8] = assay: Inhibition of IL-8 mRNA expression in LPS/INF-gamma stimulated human MONO-MAC-6 cells at 30 uM preincubated for 1 hr followed by LPS/INF-gamma stimulation measured after 16 hrs; assay type: functional, cell-based
MONO-MAC-6 [9] = assay: Inhibition of CXCL1 mRNA expression in LPS/INF-gamma stimulated human MONO-MAC-6 cells at 30 uM preincubated for 1 hr followed by LPS/INF-gamma stimulation measured after 16 hrs; assay type: functional, cell-based
MONO-MAC-6 [10] = assay: Inhibition of CXCL10 mRNA expression in LPS/INF-gamma stimulated human MONO-MAC-6 cells at 30 uM preincubated for 1 hr followed by LPS/INF-gamma stimulation measured after 16 hrs; assay type: functional, cell-based
MONO-MAC-6 [11] = assay: Inhibition of LPS/INF-gamma induced CXCL10 promoter dependent transcription activity in human MONO-MAC-6 cells measured after 4 hrs by luciferase reporter gene assay; assay type: functional
MONO-MAC-6 [12] = assay: Inhibition of CCL1 mRNA expression in LPS/INF-gamma stimulated human MONO-MAC-6 cells at 30 uM preincubated for 1 hr followed by LPS/INF-gamma stimulation measured after 16 hrs; assay type: functional, cell-based
MONO-MAC-6 [13] = assay: Inhibition of CXCL11 mRNA expression in LPS/INF-gamma stimulated human MONO-MAC-6 cells at 30 uM preincubated for 1 hr followed by LPS/INF-gamma stimulation measured after 16 hrs; assay type: functional, cell-based
[14] = Effect on constitutive activity of EF-1alpha expressed in human MONO-MAC-6 cells up to 50 uM measured after 4 hrs by luciferase reporter gene assay; assay type: ADME, cell-based; settings: mono-mac-6, 4 h
MONO-MAC-6 [15] = assay: Inhibition of IL-6 mRNA expression in LPS/INF-gamma stimulated human MONO-MAC-6 cells at 30 uM preincubated for 1 hr followed by LPS/INF-gamma stimulation measured after 16 hrs; assay type: functional, cell-based
[16] = Down regulation of IL-8 mRNA expression in LPS/INF-gamma stimulated human MONO-MAC-6 cells at 30 uM preincubated for 1 hr followed by LPS/INF-gamma stimulation measured after 4 hrs by quantitative RT-PCR analysis; assay type: functional, cell-based
MONO-MAC-6 [17] = assay: Inhibition of IL-23 mRNA expression in LPS/INF-gamma stimulated human MONO-MAC-6 cells at 30 uM preincubated for 1 hr followed by LPS/INF-gamma stimulation measured after 16 hrs; assay type: functional, cell-based
[18] = Down regulation of IL-6 mRNA expression in LPS/INF-gamma stimulated human MONO-MAC-6 cells at 30 uM preincubated for 1 hr followed by LPS/INF-gamma stimulation measured after 4 hrs by quantitative RT-PCR analysis; assay type: functional, cell-based
MONO-MAC-6 [19] = assay: Inhibition of TNF-alpha mRNA expression in LPS/INF-gamma stimulated human MONO-MAC-6 cells at 30 uM preincubated for 1 hr followed by LPS/INF-gamma stimulation measured after 16 hrs; assay type: functional, cell-based
[20] = Down regulation of COX-2 mRNA expression in LPS/INF-gamma stimulated human MONO-MAC-6 cells at 30 uM preincubated for 1 hr followed by LPS/INF-gamma stimulation measured after 4 hrs by quantitative RT-PCR analysis; assay type: functional, cell-based
[21] = Inhibition of IRF (unknown origin) expressed in LPS/INF-gamma-stimulated human MONO-MAC-6 cells assessed as reduction in ISRE dependent transcription activity measured after 4 hrs by luciferase reporter gene assay; assay type: cell-based; settings: MONO-MAC-6, 4 h
[22] = Down regulation of CCL2 mRNA expression in LPS/INF-gamma stimulated human MONO-MAC-6 cells at 30 uM preincubated for 1 hr followed by LPS/INF-gamma stimulation measured after 4 hrs by quantitative RT-PCR analysis; assay type: functional, cell-based
[23] = Down regulation of TNF-alpha mRNA expression in LPS/INF-gamma stimulated human MONO-MAC-6 cells at 3.8 uM preincubated for 1 hr followed by LPS/INF-gamma stimulation measured after 4 hrs by quantitative RT-PCR analysis; assay type: functional, cell-based
MONO-MAC-6 [24] = assay: Inhibition of CCL1 mRNA expression in LPS/INF-gamma stimulated human MONO-MAC-6 cells at 3.8 uM preincubated for 1 hr followed by LPS/INF-gamma stimulation measured after 16 hrs; assay type: functional, cell-based
MONO-MAC-6 [25] = assay: Inhibition of IL-6 mRNA expression in LPS/INF-gamma stimulated human MONO-MAC-6 cells at 3.8 uM preincubated for 1 hr followed by LPS/INF-gamma stimulation measured after 16 hrs; assay type: functional, cell-based
MONO-MAC-6 [26] = assay: Inhibition of CXCL10 mRNA expression in LPS/INF-gamma stimulated human MONO-MAC-6 cells at 3.8 uM preincubated for 1 hr followed by LPS/INF-gamma stimulation measured after 16 hrs; assay type: functional, cell-based
[27] = Down regulation of […] mRNA expression in LPS/INF-gamma stimulated human MONO-MAC-6 cells at 3.8 uM preincubated for 1 hr followed by LPS/INF-gamma stimulation measured after 4 hrs by quantitative RT-PCR analysis; assay type: functional, cell-based
MONO-MAC-6 [28] = assay: Inhibition of CCL3 mRNA expression in LPS/INF-gamma stimulated human MONO-MAC-6 cells at 3.8 uM preincubated for 1 hr followed by LPS/INF-gamma stimulation measured after 16 hrs; assay type: functional, cell-based
[29] = Down regulation of CCL2 mRNA expression in LPS/INF-gamma stimulated human MONO-MAC-6 cells at 3.8 uM preincubated for 1 hr followed by LPS/INF-gamma stimulation measured after 4 hrs by quantitative RT-PCR analysis; assay type: functional, cell-based
MONO-MAC-6 [30] = assay: Inhibition of IL-8 mRNA expression in LPS/INF-gamma stimulated human MONO-MAC-6 cells at 3.8 uM preincubated for 1 hr followed by LPS/INF-gamma stimulation measured after 16 hrs; assay type: functional, cell-based
MONO-MAC-6 [31] = assay: Inhibition of CXCL1 mRNA expression in LPS/INF-gamma stimulated human MONO-MAC-6 cells at 3.8 uM preincubated for 1 hr followed by LPS/INF-gamma stimulation measured after 16 hrs; assay type: functional, cell-based
MONO-MAC-6 [32] = assay: Inhibition of IL-23 mRNA expression in LPS/INF-gamma stimulated human MONO-MAC-6 cells at 3.8 uM preincubated for 1 hr followed by LPS/INF-gamma stimulation measured after 16 hrs; assay type: functional, cell-based
MONO-MAC-6 [33] = assay: Inhibition of CXCL11 mRNA expression in LPS/INF-gamma stimulated human MONO-MAC-6 cells at 3.8 uM preincubated for 1 hr followed by LPS/INF-gamma stimulation measured after 16 hrs; assay type: functional, cell-based
MONO-MAC-6 [34] = assay: Inhibition of TNF-alpha mRNA expression in LPS/INF-gamma stimulated human MONO-MAC-6 cells at 3.8 uM preincubated for 1 hr followed by LPS/INF-gamma stimulation measured after 16 hrs; assay type: functional, cell-based
[35] = Down regulation of COX-2 mRNA expression in LPS/INF-gamma stimulated human MONO-MAC-6 cells at 3.8 uM preincubated for 1 hr followed by LPS/INF-gamma stimulation measured after 4 hrs by quantitative RT-PCR analysis; assay type: functional, cell-based
[36] = Effect on GAPDH mRNA expression in human MONO-MAC-6 cells at 2.52 to 3.8 uM preincubated for 1 hr followed by LPS/INF-gamma stimulation measured after 4 hrs by quantitative RT-PCR analysis; assay type: ADME, cell-based; settings: mono-mac-6, 4 h
[37] = Down regulation of IL-6 mRNA expression in LPS/INF-gamma stimulated human MONO-MAC-6 cells at 3.8 uM preincubated for 1 hr followed by LPS/INF-gamma stimulation measured after 4 hrs by quantitative RT-PCR analysis; assay type: functional, cell-based
[38] = Down regulation of IL-8 mRNA expression in LPS/INF-gamma stimulated human MONO-MAC-6 cells at 3.8 uM preincubated for 1 hr followed by LPS/INF-gamma stimulation measured after 4 hrs by quantitative RT-PCR analysis; assay type: functional, cell-based

IC50 [3]: 20 to 25 µM | IC50 (MONO-MAC-6 [7]): 7 to 7.5 µM | IC50 [21]: 40 to 45 µM
SMILES: CC(C)[C@H]1CC[C@]23C[C@@H]4[C@H](C)C(=O)[C@H]5O[C@]54[C@@]2(C)[C@@H](O)C(=O)[C@]13C
Activity [1]: Active | Activity [2]: Non-Toxic | Activity [4]: Non-Toxic | Activity [5]: Active | inhibition (MONO-MAC-6 [6]): Active | inhibition (MONO-MAC-6 [8]): Active | inhibition (MONO-MAC-6 [9]): Active | inhibition (MONO-MAC-6 [10]): Active | inhibition (MONO-MAC-6 [11]): Dose-dependent effect | inhibition (MONO-MAC-6 [12]): Active | inhibition (MONO-MAC-6 [13]): Active | Activity [14]: Non-Toxic | inhibition (MONO-MAC-6 [15]): Active | Activity [16]: Active | inhibition (MONO-MAC-6 [17]): Active | Activity [18]: Active | inhibition (MONO-MAC-6 [19]): Active | Activity [20]: Active | Activity [22]: Active

IC50 [3]: > 50 µM | IC50 (MONO-MAC-6 [7]): > 50 µM | IC50 [21]: > 50 µM
SMILES: C=C[C@H]1CC[C@]23C[C@@H]4[C@H](C)[C@@H](O)[C@H]5O[C@@]45[C@@]2(C)CC(=O)[C@]13C
Activity [4]: Non-Toxic | Activity [14]: Non-Toxic

IC50 [3]: 0.32 to 0.4 µM | IC50 (MONO-MAC-6 [7]): 0.9 to 1.2 µM | IC50 [21]: 0.8 to 1 µM
SMILES: CC(C)[C@H]1CC[C@]23C[C@@H]4[C@H](C)C(=O)[C@H]5O[C@]54[C@@]2(C)CC(=O)[C@]13C
Activity [23]: Active | inhibition (MONO-MAC-6 [24]): Active | Activity [4]: Non-Toxic | inhibition (MONO-MAC-6 [25]): Active | inhibition (MONO-MAC-6 [26]): Active | Activity [27]: Active | inhibition (MONO-MAC-6 [28]): Active | Activity [29]: Active | inhibition (MONO-MAC-6 [30]): Active | inhibition (MONO-MAC-6 [31]): Active | inhibition (MONO-MAC-6 [11]): Dose-dependent effect | inhibition (MONO-MAC-6 [32]): Active | inhibition (MONO-MAC-6 [33]): Active | Activity [14]: Non-Toxic | inhibition (MONO-MAC-6 [34]): Active | Activity [35]: Active | Activity [36]: Non-Toxic | Activity [37]: Active | Activity [38]: Active
